The source of these data is patent US20240172756A1, “ORGANOANTIMONY(V) C[…] AND METHODS OF PRODUCTION AND USE THEREOF” (priority 2021, published 2024).

Test [1] has as its system Candida albicans. The experiment in a line: Antifungal disk diffusion assay, C. albicans. It counts as cell-based. As to conditions: solid compound on paper disk. As for the experimental part: (§1) To determine the antifungal properties of the two groups of Sb(V) cyanoximaes, Cryptococcus neoformans and Candida albicans, both of which are deadly human pathogens, were tested.
(§2) First, solid state powder compounds were deposited on paper disks and tested against two fungi: Cryptococcus neoformans and Candia albicans. Each experiment was conducted in triplicate with each compound at each concentration of deposited solid compound. The control was a blank paper (100% cotton disk).
(§3) Disk diffusion assays: No inhibition of Cryptococcus neoformans or Candida albicans for the following organoantimony(V) cyanoximate compounds at any concentration (S, ×2, ×4): H(ACO), H(ECO), H(MCO).
(In general: A growth-free zone around the sample is the usual read-out of agar diffusion tests.)

Test [2] has as its system Candida albicans. As to the kind of experiment: MIC assay, C. albicans. It counts as cell-based. As to conditions: Table 1. As for the experimental part: as §1
(§4) MIC of the 3rd generation compounds, as well as complete MIC measurements for the 2nd generation Sb(V) compounds, are determined. A dilution assay in a 96-well-plate format, the gold standard for measuring MICS recommended by the Clinical Laboratory Standards Institute (CLSI), is utilized. Prior to plate inoculation, bacterial cultures of P. aeruginosa PAO1, S. aureus NRS70, E. foecium CC17, and E. coli S17 are grown in Mueller Hinton Broth (MHB) to middle log phase as determined by the individual growth curves and diluted to obtain absorbance at 600 nm of 0.1. These normalized cultures are diluted 1:100 using MHB and inoculated into the fresh medium with serially diluted Sb(V) compounds in 96-well plates. The plates are incubated for 24 h at 37° C. For fungal pathogens, cultures of Cryptococcus neoformans strain H99 and Candida albicans strain SC5314 are grown to stationary phase in YPD medium for 18 h at 30° C. Following incubation, fungal cells are centrifuged, washed three times with PBS, and then counted with trypan blue exclusion. Each compound is screened using a microdilution assay with 0.5×10^3 fungal cells in RPMI-MOPS medium at 35° C. for 48 h. Following incubations for bacterial or fungal pathogens, the OD600 is measured using a Biotek Synergy HT microtiter plate reader ([…].). The MIC is defined as the lowest concentration that inhibits growth. An aliquot from the clear wells from the MIC assay is plated on agar to determine minimum bactericidal concentration (MBC) or minimum fungicidal concentration (MFC). Each experiment is based on at least three biological replicates and repeated for consistency. The MIC and MBC for each compound is compared to those obtained for clinically applied antibiotics/antifungals. For bacterial pathogens, the corresponding antibiotics, such as tobramycin (P. aeruginosa), trimethoprim (S. aureus), gentamicin (E. coli) and ampicillin (E. foecium), are used. For fungal pathogens, the data is compared to the antifungal drugs Amphotericin B and Caspofungin for C. neoformans and C. albicans, respectively, by using the CLSI method.
(§5) Second, the compounds were dissolved in DMSO to […], and their minimal inhibitory concentration (MIC) was determined against C. neoformans and C. albicans. Starting concentration used was 100 μg/ml, and then diluted 1:2.
(§6) MIC assays: The MIC assay protocol utilized for determination of the effects of various organoantimony(V) cyanoximate compounds in various bacteria is shown in FIG. 16. Each solubilized in DMSO at 5 mg/ml, starting concentration is 100 μg/ml. Error bars represent standard error of the mean (if none, the values were identical in each experiment). Untested compounds have no bar. Bars reaching 100 μg/ml were not considered to have antifungal activity.

Test [3] relates to Escherichia coli. The experiment in a line: MIC in liquid culture, E. coli. It counts as cell-based. The conditions noted are these: for MIC, E. coli: Table 1; for antimicrobial effect: strain S17, paper disk and MIC studies. As for the experimental part:
(§7) To determine the antimicrobial potential of the two generations (G1—based on SbPh4-core, and G2—based on SbMe3-core) of newly synthesized Sb(V) cyanoximates, several representative compounds were first selected and their antimicrobial properties tested by using disk diffusion assays, The minimal inhibitory concentrations (MIC) of selected compounds were also determined in liquid cultures. Three bacterial and two fungal pathogens were used as target microorganisms. Bacterial pathogens included Gram-negative Pseudomonas aeruginosa and Gram-positive Staphylococcus aureus, representing the ESKAPE group of human pathogens known for their high virulence and antibiotic resistance.
as §4
(§8) Two different types of antimicrobial studies were performed: 1) paper disk studies during growth on solid media; and 2) MIC determination during growth in liquid media. […] Antifungal disk assays concluded that Sb(Ph)4 (ECO) was effective against Cryptococcus neoformans and Candida albicans. […] For MIC assays, Sb(Ph)4 (MCO), the Sb(V) cyanoximate, was tested, along with the free cyanoximes H(MCO), H(ECO), and Na[H(ACO)2].
as §6

In test [4] the test system is Pseudomonas aeruginosa. As to the kind of experiment: MIC in liquid culture, P. aeruginosa. It counts as cell-based. The conditions noted are these: for MIC, P. aeruginosa: Table 1; for antimicrobial effect: strain PAO1, paper disk and MIC studies. As for the experimental part: as §7, §4, §8, §6
For test [5], the system named is Cryptococcus neoformans. The experiment in a line: MIC assay, C. neoformans. It counts as cell-based. The conditions noted are these: Table 1. As for the experimental part:
as §1, §4, §5, §6

Test [6] has as its system Cryptococcus neoformans. The experiment in a line: Antifungal disk diffusion assay, C. neoformans. It counts as cell-based. As to conditions: solid compound on paper disk. As for the experimental part:
as §1, §2, §3

Test [7] has as its system Staphylococcus aureus. As to the kind of experiment: MIC in liquid culture, S. aureus. The conditions noted are these: for antimicrobial effect: Methicillin-resistant strain NRS70, paper disk and MIC studies; for MIC, S. aureus: Table 1. It counts as cell-based. As for the experimental part:
as §7, §4, §8, §6

Test [8] has as its system Staphylococcus aureus MRSA. As to the kind of experiment: Broth dilution assay, S. aureus MRSA. As to conditions: multi-drug resistant strain, FIG. 20. It counts as cell-based. The text has this: As shown in FIGS. 20-21, compounds containing Sb display higher bactericidal activity against Gram positive Staphylococcus aureus (FIG. 20) than Gram negative E. coli (FIG. 21). […] In addition, 25-40% reduction of growth was also observed for Sb(Ph4)Br, Sb(Ph4)ECO, Sb(Ph4)ACO, and Sb(Ph4)TCO against Gram negative E. coli (FIG. 21).

The subject of test [9] is Cryptococcus neoformans. The conditions noted are these: reference value; organism not given; cited from earlier work.

The structures appear in SMILES notation. ≈ marks a conversion by molar mass, not a printed value.

Regarding `N#CC(=N[O][Sb]([c]1ccccc1)([c]1ccccc1)([c]1ccccc1)[c]1ccccc1)C(N)=S` [SbPh4TCO], in test [1], the “antifungal activity / zone of inhibition in disk assay” value is “followed in antifungal activity against both strains”. Further, in test [2], the “MIC, C. albicans” value was 100 µg/mL. Also, in [3], the “MIC, E. coli” value was above 200 µg/mL and the “antimicrobial effect” value is “essentially no antimicrobial activity”. In [4], the “MIC, P. aeruginosa” value was above 200 µg/mL and the “antimicrobial effect” value is listed as “essentially no antimicrobial activity”. The “MIC, C. neoformans” value in [5] is 25 µg/mL. Besides, in test [6], the “antifungal activity / zone of inhibition in disk assay” value is “followed in antifungal activity against both strains”. Also, in test [7], the “antimicrobial effect” value was “significant effects” and the “MIC, S. aureus” value is 100 µg/mL. The “bactericidal activity” value in test [8] is “significant bactericidal activity”.
As to `C[C@@H]1[C@H](O)[C@@H](C)/C=C/C=C/C=C/C=C/C=C/C=C/C=C/[C@H](O[C@@H]2O[C@H](C)[C@@H](O)[C@H](N)[C@@H]2O)C[C@@H]2O[C@](O)(C[C@@H](O)C[C@@H](O)[C@H](O)CC[C@@H](O)C[C@@H](O)CC(=O)O[C@H]1C)C[C@H](O)[C@H]2C(=O)O` [Amphotericin B], the “MIC concentration (for reference)” value in test [9] was 0.5 µg/mL (≈ 0.541 µM).
`CCOC(=O)C(C#N)=N[O][Sb]([c]1ccccc1)([c]1ccccc1)([c]1ccccc1)[c]1ccccc1` [SbPh4ECO]: the “antifungal activity / zone of inhibition in disk assay” value in test [1] and in test [6] was “effective” in each case. Further, the “MIC, C. albicans” value in [2] was determined as 31.2 µg/mL. Further, the “MIC, E. coli” value in [3] is above 200 µg/mL. The “antimicrobial effect” value in [3], in [4] and in test [7] was “significant antimicrobial effect” throughout. In test [4], the “MIC, P. aeruginosa” value was found to be 150 µg/mL. Besides, the “MIC, C. neoformans” value in test [5] stood at 10.9 µg/mL. Also, in test [7], the “MIC, S. aureus” value came to 150 µg/mL. The “bactericidal activity” value in test [8] is given as “significant bactericidal activity”.
